Several values for one entry are separate records, joined by “and”; a condition that tells them apart may be missing. Identical values can stand only once.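 48-hour exposure; five concentrations; linearly interpolated endpoints. GI50 marks 50% less growth. The concentration for full growth arrest is given as TGI.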

Some test systems named below: KM12 colon; CAKI-1 renal; RPMI-8226 leukemia; SN12C renal; NCI-H23 lung; LOX IMVI melanoma; SW-620 colon; SNB-19 CNS; OVCAR-8 ovarian; RXF 393 renal.
Holding throughout (assay): growth of human tumour cells (NCI), 48 h

In the case of `O=C1C=C(NCCNC(=S)Nc2ccccc2)c2nccc3c2c1nc1ccccc13`, the GI50 is 41.2 µM in the test with KM12 colon; 33.6 µM with CAKI-1 renal; 74.6 µM with RPMI-8226 leukemia; 23.5 µM in the test on SN12C renal; 31.5 µM in the test on NCI-H23 lung; 31.5 µM with LOX IMVI melanoma. The GI50 in the test with SW-620 colon is 32.2 µM; with SNB-19 CNS, over 100 µM; with OVCAR-8 ovarian, over 100 µM. For the same compound, the TGI in the test with KM12 colon, in the test on CAKI-1 renal, with RPMI-8226 leukemia, in the test with SN12C renal, with NCI-H23 lung and in the test on LOX IMVI melanoma was over 100 µM each time. In addition, the TGI in the test on SW-620 colon, with SNB-19 CNS and in the test with OVCAR-8 ovarian was over 100 µM each time.

In the case of `O=C(/C(=C\C(=O)c1cccs1)c1ccsc1)c1ccc(Br)cc1`, the TGI in the test on KM12 colon, in the test on CAKI-1 renal, in the test on RPMI-8226 leukemia, with SN12C renal, in the test on NCI-H23 lung and with SW-620 colon was over 100 µM throughout. Moreover, the TGI in the test on SNB-19 CNS and with OVCAR-8 ovarian was over 100 µM throughout.

As to `COC[C@@H](N=CN1CCc2cc(OC)c(OC)cc2[C@@H]1C)C(C)(C)C`, the TGI in the test on KM12 colon, in the test on CAKI-1 renal, in the test with RPMI-8226 leukemia, with SN12C renal, with RXF 393 renal and with NCI-H23 lung was over 100 µM in each case. Also, the TGI with SW-620 colon, in the test on SNB-19 CNS and in the test with OVCAR-8 ovarian was over 100 µM in each case.

On to `CC12N=NN(c3ccc([N+](=O)[O-])cc3)C1(O)c1ccccc1C2=O` (stereo unspecified), for which the TGI with KM12 colon, in the test on RPMI-8226 leukemia, in the test with SN12C renal, in the test on RXF 393 renal, in the test on NCI-H23 lung and in the test with LOX IMVI melanoma was over 100 µM each time. Moreover, the TGI with SW-620 colon, in the test on SNB-19 CNS and in the test with OVCAR-8 ovarian was over 100 µM each time.

Take `Cc1ccc(-c2cc(-c3ccco3)c(C#N)c(=O)[nH]2)cc1`: the TGI in the test on KM12 colon, in the test on RPMI-8226 leukemia, in the test on SN12C renal, in the test with RXF 393 renal, in the test on NCI-H23 lung and in the test on LOX IMVI melanoma was over 100 µM each time. The TGI with SW-620 colon, in the test on SNB-19 CNS and in the test with OVCAR-8 ovarian was over 100 µM each time.

With `CC[C@@]1(O)C[C@H](OC2CC(N(C)C)C(OC3CC(O)C(OC4CCC(=O)C(C)O4)C(C)O3)C(C)O2)c2c(cc3c(c2O)C(=O)c2c(O)cccc2C3=O)[C@H]1C(=O)OC` (stereo partly specified), the TGI in the test with KM12 colon was 0.519 µM and 0.56 µM; with CAKI-1 renal it was 0.179 µM and 0.373 µM; in the test on RPMI-8226 leukemia, 0.261 µM and 0.743 µM; with RXF 393 renal, 0.0345 µM and 0.124 µM; in the test with NCI-H23 lung it was 0.12 µM and 0.125 µM; with SNB-19 CNS it was 1.98 µM and 2.21 µM. In addition, the TGI with OVCAR-8 ovarian is 0.956 µM and 0.404 µM. In addition, in the test with RPMI-8226 leukemia, the GI50 was 0.00904 µM and 0.00447 µM.

Take `O=C(O)C1C2CCC(O2)C1C(=O)N1CCCCC1` (stereo unspecified): the TGI was 37.2 µM in the test with KM12 colon; 7.88 µM in the test with RPMI-8226 leukemia; 7.17 µM with SN12C renal; 8.35 µM with RXF 393 renal; 33.4 µM in the test with NCI-H23 lung; 23.3 µM with LOX IMVI melanoma. Further, the figures for the TGI in the test with SW-620 colon, with SNB-19 CNS and in the test with OVCAR-8 ovarian were 15 µM, 38.2 µM and 18.1 µM, respectively.

As to `O=C(Nc1cccc([N+](=O)[O-])c1)C(=O)C(C(=O)c1ccccc1-c1ccccc1)C1OC(=O)c2ccccc21` (stereo unspecified), the TGI in the test on KM12 colon stood at 44.2 µM; in the test with RPMI-8226 leukemia, 60.3 µM; with RXF 393 renal it was 28.5 µM; in the test on NCI-H23 lung, 30.1 µM; in the test on LOX IMVI melanoma, 36.6 µM; in the test with SW-620 colon it was 73.6 µM. In the test with OVCAR-8 ovarian, this compound yielded a TGI of 71 µM.

Turning to `O=C1C=CC=CC2CC=C[C@@H](O)C12` (stereo partly specified), the TGI in the test on KM12 colon is 24.5 µM; in the test on CAKI-1 renal, over 100 µM; in the test with RPMI-8226 leukemia, 15.3 µM; in the test on SN12C renal, 47.2 µM; in the test with LOX IMVI melanoma it was 38.9 µM; in the test with SW-620 colon, 35.3 µM. Also, the TGI was 54.3 µM with SNB-19 CNS and over 100 µM in the test on OVCAR-8 ovarian.

Take `Cc1ccc(S(=O)(=O)NCCNC2=CC(=O)c3nc4ccccc4c4ccnc2c34)cc1`: the GI50 in the test with KM12 colon was 16.1 µM; with CAKI-1 renal, 20.5 µM; in the test with RPMI-8226 leukemia it was 10.5 µM; in the test on SN12C renal it was 17.8 µM; with NCI-H23 lung, 20.1 µM; with LOX IMVI melanoma, 16.6 µM. The GI50 in the test with SW-620 colon is 19.6 µM; in the test with SNB-19 CNS, 13.8 µM; in the test with OVCAR-8 ovarian it was 19.5 µM. Besides, the TGI in the test on KM12 colon is 34.6 µM; in the test with CAKI-1 renal, 48.3 µM; with RPMI-8226 leukemia, over 100 µM; with SN12C renal, 39.6 µM; in the test on NCI-H23 lung, 49.5 µM; with LOX IMVI melanoma it was 42.4 µM. Moreover, the TGI with SW-620 colon amounted to 97.2 µM; with SNB-19 CNS, 33.9 µM; in the test with OVCAR-8 ovarian it was 72.7 µM.

As to `O=C([CH-]C(=O)c1ccccc1)c1ccccc1.O=C([CH-]C(=O)c1ccccc1)c1ccccc1.O=C([CH-]C(=O)c1ccccc1)c1ccccc1.[Nd+3].[OH3+]`, the GI50 is 6.02 µM in the test with KM12 colon; 5.34 µM in the test on CAKI-1 renal; 3.47 µM in the test on RPMI-8226 leukemia; 11.1 µM in the test on SN12C renal; 2.97 µM in the test with NCI-H23 lung; 11.5 µM in the test on LOX IMVI melanoma. Moreover, the GI50 is 4.1 µM with SW-620 colon, 4.52 µM in the test with SNB-19 CNS and 3.3 µM with OVCAR-8 ovarian. Moreover, the TGI in the test on KM12 colon came to 37.9 µM; in the test with CAKI-1 renal it was 20.8 µM; in the test on RPMI-8226 leukemia, 26.4 µM; in the test with SN12C renal, 68.8 µM; in the test on NCI-H23 lung it was 13.3 µM; with LOX IMVI melanoma, 29.4 µM. For the same compound, the TGI turned out to be 26.4 µM in the test on SW-620 colon, 29.1 µM with SNB-19 CNS and 22.1 µM in the test on OVCAR-8 ovarian.

The values are drawn from PubChem BioAssay (NCI).
